Experimental data taken from patent US20250221410A1, “SUBSTITUTED 2-C-AZINES AND SALTS THEREOF, AND USE THEREOF AS HERBICIDAL ACTIVE SUBSTANCES” (BAYER AKTIENGESELLSCHAFT, priority 2022, published 2025).

Tests used:
Type in all cases: in vivo
[1] = system: AMARE: Amaranthus retroflexus; assay: Post-emergence herbicidal efficacy at 80 g/ha, AMARE; details: visual rating about 3 weeks after treatment vs untreated controls
Procedure: Seeds of monocotyledonous and dicotyledonous weeds and crop plants were placed in sandy loam in plastic or organic planting pots, covered with soil and cultivated in a greenhouse under controlled growth conditions. 2 to 3 weeks after sowing, the test plants were treated at the one-leaf stage. The compounds of the invention, formulated in the form of wettable powders (WP) or as emulsion concentrates (EC), were then sprayed onto the green parts of the plants as aqueous suspension or emulsion with addition of 0.5% additive at a water application rate of 600 l/ha (converted). After the test plants had been kept in the greenhouse under optimum growth conditions for about 3 weeks, the activity of the preparations was rated visually in comparison to untreated controls. For example, 100% activity=the plants have died, 0% activity=like control plants. Tables B1 to B10 below show the effects of selected compounds of the general formula (I) according to Table 1 on various harmful plants and an application rate corresponding to 80 g/ha, which were obtained by the experimental procedure mentioned above.

[2] = system: AMARE: Amaranthus retroflexus; assay: Pre-emergence herbicide efficacy at 80 g/ha, AMARE; details: scored visually after about 3 weeks
Text: Seeds of monocotyledonous and dicotyledonous weed plants and crop plants were placed in plastic or organic planting pots and covered with soil. The compounds of the invention, formulated in the form of wettable powders (WP) or as emulsion concentrates (EC), were then applied to the surface of the covering soil as aqueous suspension or emulsion with addition of 0.5% additive at a water application rate equivalent to 600 l/ha. After the treatment, the pots were placed in a greenhouse and kept under good growth conditions for the test plants. After about 3 weeks, the efficacy of the preparations was scored visually in comparison with untreated controls as percentages. For example, 100% activity=the plants have died, 0% activity=like control plants. Tables D1 to D12 below show the effects of selected compounds of the general formula (I) according to Table 1 on various harmful plants and an application rate corresponding to 80 g/ha, which were obtained by the experimental procedure mentioned above.

POAAN: Poa annua [3] = assay: Post-emergence herbicidal efficacy at 1280 g/ha, POAAN; details: visual rating about 3 weeks after treatment vs untreated controls
Procedure: (§1) Seeds of mono- and dicotyledonous weed plants were placed in plastic pots in sandy loam soil (doubly sown with in each case one species of mono- or dicotyledonous weed plants per pot), covered with soil and cultivated in a greenhouse under controlled growth conditions. 2 to 3 weeks after sowing, the test plants were treated at the one-leaf stage. The compounds of the invention, formulated in the form of wettable powders (WP) or as emulsion concentrates (EC), were applied to the green parts of the plants as aqueous suspension or emulsion with addition of 0.5% additive at a water application rate equivalent to 600 litres per hectare. After the test plants had been kept in the greenhouse under optimum growth conditions for about 3 weeks, the activity of the preparations was rated visually in comparison to untreated controls. For example, 100% activity=the plants have died, 0% activity=like control plants. Tables A1 to A12 below show the effects of selected compounds of the general formula (I) according to Table 1 on various harmful plants and at an application rate corresponding to 1280 g/ha, which were obtained by the trial procedure specified above.

SETVI: Setaria viridis [4] = assay: Post-emergence herbicidal efficacy at 1280 g/ha, SETVI; details: visual rating about 3 weeks after treatment vs untreated controls
Procedure: as §1

POAAN: Poa annua [5] = assay: Pre-emergence herbicide efficacy at 1280 g/ha, POAAN; details: visual scoring after about 3 weeks vs untreated controls
Text: (§2) Seeds of mono- and dicotyledonous weed plants were placed in plastic pots in sandy loam soil (doubly sown with one species each of mono- or dicotyledonous weed plants per pot) and covered with soil. The compounds of the invention, formulated in the form of wettable powders (WP) or as emulsion concentrates (EC), were then applied to the surface of the covering soil as aqueous suspension or emulsion with addition of 0.5% additive at a water application rate of 600 litres per hectare (converted). After the treatment, the pots were placed in a greenhouse and kept under good growth conditions for the test plants. After about 3 weeks, the efficacy of the preparations was scored visually in comparison with untreated controls as percentages. For example, 100% activity=the plants have died, 0% activity=like control plants. Tables C1 to C12 below show the effects of selected compounds of the general formula (I) according to Table 1 on various harmful plants and at an application rate corresponding to 1280 g/ha, which were obtained by the trial procedure specified above.

[6] = system: AMARE: Amaranthus retroflexus; assay: Pre-emergence herbicide efficacy at 1280 g/ha, AMARE; details: visual scoring after about 3 weeks vs untreated controls
Text: as §2

[7] = system: DIGSA: Digitaria sanguinalis; assay: Pre-emergence herbicide efficacy at 1280 g/ha, DIGSA; details: visual scoring after about 3 weeks vs untreated controls
Text: as §2

[8] = system: AMARE: Amaranthus retroflexus; assay: Post-emergence herbicidal efficacy at 1280 g/ha, AMARE; details: rated visually after about 3 weeks vs untreated controls, 100% = plants have died, 0% = like control plants
Procedure: as §1

SETVI: Setaria viridis [9] = assay: Pre-emergence herbicide efficacy at 1280 g/ha, SETVI; details: visual scoring vs untreated controls
Text: as §2

KCHSC: Kochia scoparia [10] = assay: Pre-emergence herbicide efficacy at 1280 g/ha, KCHSC; details: visual scoring after about 3 weeks vs untreated controls
Text: as §2

[11] = system: ABUTH: Abutilon theophrasti; assay: Post-emergence herbicidal efficacy at 1280 g/ha, ABUTH; details: rated visually after about 3 weeks vs untreated controls, 100% = plants have died, 0% = like control plants
Procedure: as §1

VERPE: Veronica persica [12] = assay: Post-emergence herbicidal efficacy at 1280 g/ha, VERPE; details: visual rating about 3 weeks after treatment vs untreated controls
Procedure: as §1

[13] = system: ECHCG: Echinochloa crus-galli; assay: Post-emergence herbicidal efficacy at 1280 g/ha, ECHCG; details: rated visually after about 3 weeks vs untreated controls, 100% = plants have died, 0% = like control plants
Procedure: as §1

VERPE: Veronica persica [14] = assay: Pre-emergence herbicide efficacy at 1280 g/ha, VERPE; details: visual scoring vs untreated controls
Text: as §2

[15] = system: ECHCG: Echinochloa crus-galli; assay: Pre-emergence herbicide efficacy at 1280 g/ha, ECHCG; details: visual scoring after about 3 weeks vs untreated controls
Text: as §2

[16] = system: ABUTH: Abutilon theophrasti; assay: Pre-emergence herbicide efficacy at 1280 g/ha, ABUTH; details: visual scoring after about 3 weeks vs untreated controls
Text: as §2

STEME: Stellaria media [17] = assay: Post-emergence herbicidal efficacy at 1280 g/ha, STEME; details: visual rating about 3 weeks after treatment vs untreated controls
Procedure: as §1

STEME: Stellaria media [18] = assay: Pre-emergence herbicide efficacy at 1280 g/ha, STEME; details: visual scoring vs untreated controls
Text: as §2

KCHSC: Kochia scoparia [19] = assay: Post-emergence herbicidal efficacy at 1280 g/ha, KCHSC; details: visual rating about 3 weeks after treatment vs untreated controls
Procedure: as §1

Row | Compound | Post-emergence efficacy against AMARE [1] [%] | Pre-emergence efficacy against AMARE in % [2] [%] | Post-emergence efficacy against POAAN (POAAN: Poa annua [3]) [%] | Pre-emergence efficacy against POAAN (POAAN: Poa annua [5]) [%] | Pre-emergence efficacy against AMARE [6] [%] | Pre-emergence efficacy against DIGSA [7] [%] | Post-emergence efficacy at 1280 g/ha against AMARE in % [8] [%] | Post-emergence efficacy at 1280 g/ha against ABUTH in % [11] [%] | Post-emergence efficacy against VERPE (VERPE: Veronica persica [12]) [%] | Post-emergence efficacy against STEME (STEME: Stellaria media [17]) [%] | Post-emergence efficacy against KCHSC (KCHSC: Kochia scoparia [19]) [%] | also measured
1 | O=S(=O)(CCCC(F)(F)F)Oc1c(F)cccc1Cc1ncc(F)cn1 [Example 1-15] | 90 |  |  |  |  |  |  |  |  |  |  | 
2 | O=S(=O)(CCC(F)(F)F)Oc1c(F)cccc1Cc1ncc(F)cn1 [Example 1-17] | 90 | 80 |  |  |  |  |  |  |  |  |  | 
3 | O=S(=O)(CCCC(F)(F)F)Oc1c(Cl)cccc1Cc1ncc(Cl)cn1 [Example 1-18] | 90 |  |  |  |  |  |  |  |  |  |  | 
4 | O=S(=O)(CCC(F)(F)F)Oc1c(Cl)cccc1Cc1ncc(Cl)cn1 [Example 1-20] | 90 |  |  |  |  |  |  |  |  |  |  | 
5 | O=S(=O)(CCC(F)(F)F)Oc1c(Cl)cccc1Cc1ncc(F)cn1 [Example 1-21] | 90 | 90 |  |  |  |  |  |  |  |  |  | 
6 | Fc1ccc(Oc2ccccc2Cc2ccc(Cl)cn2)cc1 [Example 1-74] |  |  | 90 | 100 | 100 | 100 | 90 |  |  |  |  | Post-emergence efficacy against SETVI (SETVI: Setaria viridis [4]): 90%; Pre-emergence efficacy against SETVI in % (SETVI: Setaria viridis [9]): 100%; Pre-emergence efficacy against KCHSC (KCHSC: Kochia scoparia [10]): 90%
7 | N#CC(c1ncc(F)cn1)c1ccccc1Cc1ccc(F)cc1 (centres unmarked) [Example 1-81] |  |  |  | 100 |  |  | 90 | 90 | 90 |  |  | Post-emergence efficacy at 1280 g/ha against ECHCG in % [13]: 90%
8 | Fc1ccc(Cc2ccccc2Cc2ncc(F)cn2)cc1 [Example 1-95] |  |  | 100 | 90 | 100 | 90 | 100 | 100 | 90 | 100 | 100 | Pre-emergence efficacy against VERPE in % (VERPE: Veronica persica [14]): 100%; Post-emergence efficacy against SETVI (SETVI: Setaria viridis [4]): 90%; Pre-emergence efficacy against ECHCG [15]: 90%; Pre-emergence efficacy against ABUTH [16]: 100%; Pre-emergence efficacy against KCHSC (KCHSC: Kochia scoparia [10]): 90%; Pre-emergence efficacy against STEME in % (STEME: Stellaria media [18]): 100%
9 | Fc1ccc(Cc2ccccc2Cc2ccc(Cl)cn2)cc1 [Example 1-96] |  |  | 90 |  | 100 | 100 | 100 | 100 | 100 | 90 | 90 | Pre-emergence efficacy against ECHCG [15]: 90%; Pre-emergence efficacy against SETVI in % (SETVI: Setaria viridis [9]): 90%; Pre-emergence efficacy against ABUTH [16]: 100%; Post-emergence efficacy at 1280 g/ha against ECHCG in % [13]: 90%
10 | Fc1ccc(Oc2ccccc2Cc2ncccn2)cc1 [Example 1-98] |  |  | 90 | 90 | 100 | 100 | 100 |  | 100 | 90 | 90 | Pre-emergence efficacy against VERPE in % (VERPE: Veronica persica [14]): 90%; Pre-emergence efficacy against ECHCG [15]: 90%; Pre-emergence efficacy against SETVI in % (SETVI: Setaria viridis [9]): 90%; Pre-emergence efficacy against ABUTH [16]: 100%; Pre-emergence efficacy against STEME in % (STEME: Stellaria media [18]): 90%
11 | Fc1ccc(Cc2ccccc2Oc2ncc(Cl)cc2F)nc1 [Example 1-103] |  |  | 100 | 90 | 100 | 90 | 100 | 100 | 100 | 100 | 90 | Pre-emergence efficacy against VERPE in % (VERPE: Veronica persica [14]): 90%; Post-emergence efficacy against SETVI (SETVI: Setaria viridis [4]): 90%; Pre-emergence efficacy against ECHCG [15]: 90%; Pre-emergence efficacy against SETVI in % (SETVI: Setaria viridis [9]): 100%; Pre-emergence efficacy against ABUTH [16]: 100%; Pre-emergence efficacy against STEME in % (STEME: Stellaria media [18]): 100%
12 | Fc1ccc(Sc2ccccc2Cc2ncc(Cl)cc2F)cc1 [Example 1-106] |  |  | 100 |  | 90 |  | 100 | 90 | 100 | 100 | 90 | Post-emergence efficacy at 1280 g/ha against ECHCG in % [13]: 90%
13 | Fc1ccc(-c2ccccc2Cc2ncc(Cl)cc2F)cc1F [Example 1-127] |  |  | 100 | 90 | 100 | 90 | 100 | 100 | 100 | 100 | 100 | Pre-emergence efficacy against VERPE in % (VERPE: Veronica persica [14]): 90%; Post-emergence efficacy against SETVI (SETVI: Setaria viridis [4]): 90%; Pre-emergence efficacy against SETVI in % (SETVI: Setaria viridis [9]): 100%; Pre-emergence efficacy against KCHSC (KCHSC: Kochia scoparia [10]): 90%; Pre-emergence efficacy against STEME in % (STEME: Stellaria media [18]): 90%
14 | [O-][S+](c1ccc(F)cc1)c1ccccc1Cc1ncc(Cl)cn1 (centres unmarked) [Example 1-142] | 80 |  |  |  |  |  |  |  |  |  |  | 
15 | O=S(=O)(CCC(F)(F)F)c1ccccc1Cc1ncc(F)cn1 [Example 1-150] | 80 |  |  |  |  |  |  |  |  |  |  | 
16 | Fc1cccc(Cc2ncc(Cl)cn2)c1Oc1ncc(Cl)cn1 [Example 1-151] | 80 | 80 |  |  |  |  |  |  |  |  |  | 
17 | Fc1cnc(Cc2cccc(F)c2Oc2ncc(F)cn2)nc1 [Example 1-153] | 90 | 100 |  |  |  |  |  |  |  |  |  | 
18 | Cc1nc(-c2ccccc2Cc2ncc(Cl)cn2)no1 [Example 1-159] | 80 | 90 |  |  |  |  |  |  |  |  |  | 
19 | FC(F)c1nc(-c2ccccc2Cc2ncc(Cl)cn2)no1 [Example 1-160] | 100 | 100 |  |  |  |  |  |  |  |  |  | 
